Laboratory results published in ChEMBL document CHEMBL1135945, “CoMFA and HQSAR of acylhydrazide cruzain inhibitors” (Bioorg Med Chem Lett, 2002).

Biological target: Cruzipain (Trypanosoma cruzi, UniProt P25779)
Assay: Inhibition of cruzain, the major cysteine protease from Trypanosoma cruzi

Chain of Cruzipain (P25779 whole entry): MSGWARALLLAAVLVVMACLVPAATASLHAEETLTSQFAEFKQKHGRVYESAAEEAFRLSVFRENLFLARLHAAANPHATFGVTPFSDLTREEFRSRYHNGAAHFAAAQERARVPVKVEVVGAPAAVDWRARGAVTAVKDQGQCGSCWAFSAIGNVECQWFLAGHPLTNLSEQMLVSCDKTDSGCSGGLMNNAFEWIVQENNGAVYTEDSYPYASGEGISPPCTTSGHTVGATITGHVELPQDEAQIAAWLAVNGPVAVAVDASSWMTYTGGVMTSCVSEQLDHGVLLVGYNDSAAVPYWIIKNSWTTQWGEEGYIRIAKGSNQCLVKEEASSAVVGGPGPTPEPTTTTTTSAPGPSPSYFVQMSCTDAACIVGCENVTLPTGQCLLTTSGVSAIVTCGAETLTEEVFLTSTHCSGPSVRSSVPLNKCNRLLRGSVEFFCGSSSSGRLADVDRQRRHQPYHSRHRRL

In order of falling IC50:
1. O=C(N/N=C/c1ccc(C(=O)O)o1)c1cccc([N+](=O)[O-])c1  331 µM
2. COc1ccc(C(=O)N/N=C/c2ccoc2)c(OC)c1  166 µM
3. O=C(N/N=C/c1ccc(-c2ccc(Cl)cc2)o1)c1ccccc1O  100 µM
4. O=C(N/N=C/c1ccnc2ccccc12)c1ccccc1O  30.2 µM
5. O=C(N/N=C/c1cc(Br)cs1)c1cnc2ccccc2c1  30.2 µM
6. O=C(N/N=C/c1ccc(-c2ccccc2[N+](=O)[O-])o1)c1ccccc1O  20 µM
7. CN(C)c1ccc(/C=N/NC(=O)c2ccc(O)c(O)c2)c2ccccc12  16.2 µM
8. COc1cc(OC)cc(C(=O)N/N=C/c2ccc(C(=O)O)o2)c1  10 µM
9. CSc1ccc(/C=N/NC(=O)c2cccc(C)c2O)s1  10 µM
10. CN(C)c1ccc(/C=N/NC(=O)c2ccnc3ccccc23)c2ccccc12  6.03 µM
11. O=C(N/N=C/c1ccc([N+](=O)[O-])o1)c1cc2ccccc2cc1O  6.03 µM
12. O=C(N/N=C/c1ccc(-c2cccc([N+](=O)[O-])c2)o1)c1ccc2ccccc2c1  6.03 µM
13. O=C(N/N=C/c1ccc([N+](=O)[O-])o1)c1cccc([N+](=O)[O-])c1  5.01 µM
14. O=C(N/N=C/c1ccc(-c2ccccc2Cl)o1)c1cc2ccccc2cc1O  0.603 µM
15. CN(C)c1ccc(/C=N/NC(=O)c2ccccc2)c2ccccc12  0.501 µM
16. COc1ccc2cc(O)c(C(=O)N/N=C/c3ccc(-c4cc(C(F)(F)F)nn4C)s3)cc2c1  0.2 µM
